Experimental data as given in ChEMBL document CHEMBL1201862, “PubChem BioAssay data set” (2004).
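Growth conditions: 96-well plates. Treatment: test compound, 48 hours, 5 concentrations. Analysis: linear interpolation between bracketing concentrations; unreached endpoints set to highest concentration. GI50: concentration for 50% inhibition of growth.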 Activity calls are given as the source filed them. No stated cut-off is given here; in the data, active = GI50 up to about 1.1 µM and inactive = higher.

Tests used:
Test in all cases: NCI tumour cell line growth inhibition, 48 h
EKVX = system: EKVX
COLO 205 = system: COLO 205
SF-539 = system: SF-539
BT-549 = system: BT-549
Hs-578T = system: Hs-578T
SK-MEL-2 = system: SK-MEL-2
PC-3 = system: PC-3
MDA-MB-231 = system: MDA-MB-231
MDA-MB-435 = system: MDA-MB-435
SK-MEL-5 = system: SK-MEL-5
MCF7 = system: MCF7
MOLT-4 = system: MOLT-4
ACHN = system: ACHN
HCT-15 = system: HCT-15
SK-MEL-28 = system: SK-MEL-28
K562 = system: K562
SNB-75 = system: SNB-75
NCI-H460 = system: NCI-H460
SR = system: SR
RXF 393 = system: RXF 393

Row | Structure (SMILES) | GI50 (EKVX) | GI50 (COLO 205) | GI50 (SF-539) | GI50 (BT-549) | GI50 (Hs-578T) | GI50 (SK-MEL-2) | GI50 (PC-3) | GI50 (MDA-MB-231) | GI50 (MDA-MB-435) | GI50 (SK-MEL-5) | GI50 (MCF7) | GI50 (MOLT-4) | GI50 (ACHN) | GI50 (HCT-15) [µM] | GI50 (SK-MEL-28) | GI50 (K562) | GI50 (SNB-75) | GI50 (NCI-H460) | GI50 (SR) | GI50 (RXF 393)
1 | O=C(c1ccc(Cl)cc1)N(C(=O)N1CCCCC1)c1ccccc1 | 33.7 µM (inactive) | 85.9 µM (inactive) | > 100 µM (inactive) | 48.3 µM (inactive) | 41.1 µM (inactive) | 25.2 µM (inactive) | 17.7 µM (inactive) | 42.5 µM (inactive) | > 100 µM (inactive) | 34.2 µM (inactive) | 65.5 µM (inactive) | 18.9 µM (inactive) | > 100 µM (inactive) | 79.4 | > 100 µM (inactive) | 31 µM (inactive) |  |  |  | 
2 | C=C(C)COc1cc(/N=C(/S)OC(C)C)ccc1Cl | 11.8 µM (inactive) | 16.3 µM (inactive) | 16.1 µM (inactive) | 10.8 µM (inactive) | 20.4 µM (inactive) | 13.6 µM (inactive) | 14.7 µM (inactive) | 15.4 µM (inactive) | 15.2 µM (inactive) | 19.5 µM (inactive) | 15.4 µM (inactive) | 12.1 µM (inactive) | 17.1 µM (inactive) | 15.7 | 17.3 µM (inactive) | 11.7 µM (inactive) | 15.2 µM (inactive) | 15.4 µM (inactive) |  | 
3 | O=C1N2CCc3c([nH]c4ccccc34)C23CC2CCCC12S3 (stereo not given) | 47.2 µM (inactive) | 26.7 µM (inactive) | > 50 µM (inactive) | 21.7 µM (inactive) | 22 µM (inactive) | > 50 µM (inactive) | 24.7 µM (inactive) | > 50 µM (inactive) | 33.7 µM (inactive) | 20.3 µM (inactive) | 18.7 µM (inactive) | 25.8 µM (inactive) | 37.3 µM (inactive) | 18.1 | 45.3 µM (inactive) | > 50 µM (inactive) |  |  | 28.9 µM (inactive) | > 50 µM (inactive)
4 | O=C(/C=C/c1ccccc1)C[C@@H](O)C[C@@H]1CC=CC(=O)O1 | 17.1 µM (inactive) | 5.5 µM (inactive) | 3.57 µM (inactive) | 11.4 µM (inactive) | > 33.4 µM (inactive) | 14.2 µM (inactive) | 16.3 µM (inactive) | 14.4 µM (inactive) | 4.86 µM (inactive) | 12.4 µM (inactive) | 3.94 µM (inactive) | 2.65 µM (inactive) | 12.7 µM (inactive) | 10.2 | 11.5 µM (inactive) | 2.33 µM (inactive) | 16.7 µM (inactive) | 16.3 µM (inactive) | 2.84 µM (inactive) | 
5 | Cc1ccc2c(=O)cc(Cc3cccs3)[nH]c2n1 | > 100 µM (inactive) | > 100 µM (inactive) |  | > 100 µM (inactive) | > 100 µM (inactive) | > 100 µM (inactive) | > 100 µM (inactive) | > 100 µM (inactive) | > 100 µM (inactive) | > 100 µM (inactive) | > 100 µM (inactive) | > 100 µM (inactive) |  | > 100 | > 100 µM (inactive) | > 100 µM (inactive) | 95.5 µM (inactive) |  |  | > 100 µM (inactive)
6 | COc1ccc2c(c1)/C(=C\c1c(-c3ccccc3)nc3n1CCS3)C(=O)N2 | 12.8 µM (inactive) | 3.27 µM (inactive) | 5.9 µM (inactive) | 9.51 µM (inactive) | 11 µM (inactive) | 5.25 µM (inactive) | 2.97 µM (inactive) | 4.03 µM (inactive) | 1.53 µM (inactive) | 5.08 µM (inactive) | 4.62 µM (inactive) | 2.78 µM (inactive) | 11.5 µM (inactive) | 4.38 | 11.1 µM (inactive) | 2.94 µM (inactive) | 12.8 µM (inactive) | 3.52 µM (inactive) |  | 13.6 µM (inactive)
7 | C=CCN1C[C@@H](C)N([C@@H](c2ccccc2)c2ccc(C(=O)N(CC)CC)cc2)C[C@@H]1C | > 100 µM (inactive) | > 100 µM (inactive) | > 100 µM (inactive) | > 100 µM (inactive) | > 100 µM (inactive) | > 100 µM (inactive) | > 100 µM (inactive) | > 100 µM (inactive) | > 100 µM (inactive) | > 100 µM (inactive) | > 100 µM (inactive) | 33.3 µM (inactive) | > 100 µM (inactive) | > 100 | > 100 µM (inactive) |  |  |  | > 100 µM (inactive) | 
8 | OC(CN(CCCl)CCCl)C(O)C(O)C(O)CN(CCCl)CCCl (stereo not given) | > 100 µM (inactive) | 84.7 µM (inactive) | 52.4 µM (inactive) | > 100 µM (inactive) | > 100 µM (inactive) | > 100 µM (inactive) | > 100 µM (inactive) | > 100 µM (inactive) | > 100 µM (inactive) | > 100 µM (inactive) | 29 µM (inactive) |  | 2.7 µM (inactive) | > 100 | > 100 µM (inactive) | > 100 µM (inactive) |  | 9.89 µM (inactive) | 0.624 µM (active) | > 100 µM (inactive)
9 | Clc1ccc(-c2cc(-c3nc4ccccc4[nH]3)no2)cc1 | 16.9 µM (inactive) | 20 µM (inactive) | 23.9 µM (inactive) | 21.6 µM (inactive) | 29.6 µM (inactive) | 18.7 µM (inactive) | 23.3 µM (inactive) | 18.6 µM (inactive) | 17 µM (inactive) | 17.7 µM (inactive) | 15 µM (inactive) | 16.1 µM (inactive) | 17.4 µM (inactive) | 19.6 | 19.3 µM (inactive) | 19.8 µM (inactive) | 18.3 µM (inactive) | 16.9 µM (inactive) | 21.4 µM (inactive) | 
10 | CC(=O)[C@]1(O)Cc2c(O)c3c(c(O)c2C(OC2OC(C)C(O)C(O)C2F)C1)C(=O)c1ccccc1C3=O (stereo not given in full) | 0.61 µM (active) | 0.259 µM (active) | < 0.0402 µM (active) | 0.358 µM (active) | 0.33 µM (active) | 0.828 µM (active) | 0.316 µM (active) | 0.115 µM (active) | 0.371 µM (active) | 0.0516 µM (active) | < 0.01 µM (active) | < 0.01 µM (active) | 0.0107 µM (active) | 0.0516 | 0.547 µM (active) | 0.083 µM (active) | 0.0664 µM (active) | < 0.01 µM (active) |  | 0.624 µM (active)
11 | O=C1c2ccccc2C(=O)c2c(NCC(O)CO)ccc(NCC(O)CO)c21 (stereo not given) | > 100 µM (inactive) | 37.2 µM (inactive) | 62.1 µM (inactive) | 75.7 µM (inactive) | 68.7 µM (inactive) | 24.4 µM (inactive) | 78 µM (inactive) | 97.9 µM (inactive) | > 100 µM (inactive) | 33.7 µM (inactive) | 21.3 µM (inactive) | 32.2 µM (inactive) | 40.5 µM (inactive) | 43.7 | > 100 µM (inactive) | 35.2 µM (inactive) | 56.4 µM (inactive) | 61 µM (inactive) | 61.4 µM (inactive) | 
12 | NC(=O)N/N=C(\Cc1nc2ccc(Cl)cc2nc1O)C(=O)Nc1ccc(Cl)cc1Cl | 10.6 µM (inactive) | > 100 µM (inactive) | > 100 µM (inactive) | > 100 µM (inactive) | 57.4 µM (inactive) | > 100 µM (inactive) | > 100 µM (inactive) | > 100 µM (inactive) | > 100 µM (inactive) | > 100 µM (inactive) | > 100 µM (inactive) | > 100 µM (inactive) | > 100 µM (inactive) | > 100 | > 100 µM (inactive) | > 100 µM (inactive) | > 100 µM (inactive) | > 100 µM (inactive) |  | 
13 | Oc1ccc2ccccc2c1-c1nnc(CCCCCCCCc2nnc(-c3c(O)ccc4ccccc34)o2)o1 | 4.05 µM (inactive) | 15.3 µM (inactive) | 1.52 µM (inactive) | 23.1 µM (inactive) | > 84.9 µM (inactive) | 5.87 µM (inactive) | 1.98 µM (inactive) | 3.52 µM (inactive) | 4.24 µM (inactive) | 0.838 µM (active) | 8.95 µM (inactive) | 0.449 µM (active) | 0.741 µM (active) | 0.815 | 18.1 µM (inactive) | 0.955 µM (active) | 21.4 µM (inactive) | 0.955 µM (active) |  | 3.48 µM (inactive)
14 | CNC(=S)c1nnsc1N | > 100 µM (inactive) | 0.043 µM (active) | > 100 µM (inactive) | > 100 µM (inactive) | > 100 µM (inactive) | > 100 µM (inactive) | 9.93 µM (inactive) | > 100 µM (inactive) | > 100 µM (inactive) | 14 µM (inactive) | 0.918 µM (active) | > 100 µM (inactive) | > 100 µM (inactive) | > 100 | > 100 µM (inactive) | 21.7 µM (inactive) | > 100 µM (inactive) | 0.71 µM (active) |  | > 100 µM (inactive)
15 | CNC(=O)CCCNC(=O)CCCC(=O)OC | > 100 µM (inactive) | > 100 µM (inactive) | > 100 µM (inactive) | > 100 µM (inactive) | > 100 µM (inactive) | > 100 µM (inactive) | > 100 µM (inactive) | > 100 µM (inactive) | > 100 µM (inactive) | > 100 µM (inactive) | > 100 µM (inactive) | > 100 µM (inactive) | > 100 µM (inactive) | > 100 | > 100 µM (inactive) | > 100 µM (inactive) | > 100 µM (inactive) | > 100 µM (inactive) |  | 
16 | CC(=O)CC(C)(C)NC(=O)[C@@]1(O)CC[C@H]2[C@@H]3CCC4=CC(=O)CC[C@@H]4[C@H]3CC[C@@]21C | > 100 µM (inactive) | > 100 µM (inactive) | > 100 µM (inactive) | > 100 µM (inactive) | > 100 µM (inactive) | > 100 µM (inactive) | > 100 µM (inactive) | > 100 µM (inactive) | > 100 µM (inactive) | 72.8 µM (inactive) |  | 56.4 µM (inactive) | > 100 µM (inactive) | > 100 | > 100 µM (inactive) | > 100 µM (inactive) | > 100 µM (inactive) | > 100 µM (inactive) | > 100 µM (inactive) | > 100 µM (inactive)
